Laboratory results: ChEMBL document CHEMBL1201862, “PubChem BioAssay data set” (2004)
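Values below derive from 48-hour exposures of cells grown in 96-well plates, with endpoints linearly interpolated between the two concentrations bracketing the appropriate inhibition level. GI50 marks 50% less growth.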 Active and inactive are the calls of the source. No stated cut-off is given here; in the data, active = GI50 up to about 1.1 µM and inactive = higher.

What was measured:
Assay in all cases: NCI-60 cell line screen, 48 h
SK-MEL-28 = test system: SK-MEL-28
NCI-H23 = test system: NCI-H23
SF-268 = test system: SF-268
PC-3 = test system: PC-3
UACC-257 = test system: UACC-257
M14 = test system: M14
LOX IMVI = test system: LOX IMVI
RPMI-8226 = test system: RPMI-8226
NCI/ADR-RES = test system: NCI/ADR-RES
UACC-62 = test system: UACC-62
A549 = test system: A549
MDA-MB-435 = test system: MDA-MB-435
BT-549 = test system: BT-549
SK-OV-3 = test system: SK-OV-3
CCRF-CEM = test system: CCRF-CEM
NCI-H522 = test system: NCI-H522
SNB-75 = test system: SNB-75
HL-60 = test system: HL-60
SR = test system: SR

Row | SMILES | GI50 (SK-MEL-28) | GI50 (NCI-H23) | GI50 (SF-268) | GI50 (PC-3) | GI50 (UACC-257) | GI50 (M14) | GI50 (LOX IMVI) | GI50 (RPMI-8226) | GI50 (NCI/ADR-RES) | GI50 (UACC-62) | GI50 (A549) | GI50 (MDA-MB-435) | GI50 (BT-549) | GI50 (SK-OV-3) | GI50 (CCRF-CEM) | GI50 (NCI-H522) | GI50 (SNB-75) | GI50 (HL-60) | GI50 (SR)
1 | Cc1n2nc(N)sc2n[n+]1Cc1ccccc1 | > 100 µM (inactive) | > 100 µM (inactive) | 48.8 µM (inactive) | > 100 µM (inactive) | > 100 µM (inactive) | > 100 µM (inactive) | > 100 µM (inactive) | > 100 µM (inactive) | > 100 µM (inactive) | 47.4 µM (inactive) | 70.6 µM (inactive) | > 100 µM (inactive) | 74.6 µM (inactive) | > 100 µM (inactive) | > 100 µM (inactive) | > 100 µM (inactive) | > 100 µM (inactive) | – | –
2 | CN1C2CCC1C(C(O)c1ccccc1[N+](=O)[O-])C(=O)C2 (stereo not drawn) | > 100 µM (inactive) | 73.8 µM (inactive) | 57.1 µM (inactive) | 45.7 µM (inactive) | > 100 µM (inactive) | 35.2 µM (inactive) | 41.7 µM (inactive) | 40.8 µM (inactive) | 23.4 µM (inactive) | > 100 µM (inactive) | > 100 µM (inactive) | 23.6 µM (inactive) | 43.9 µM (inactive) | > 100 µM (inactive) | 46.9 µM (inactive) | 40.3 µM (inactive) | – | 31.8 µM (inactive) | –
3 | COC(=O)C1=C(C(=O)OC)SC(=C2S[C@@H]3[C@@H]4C[C@H]([C@@H]3S2)[C@H]2C(=O)OC(=O)[C@@H]42)S1 | > 100 µM (inactive) | > 100 µM (inactive) | > 100 µM (inactive) | > 100 µM (inactive) | > 100 µM (inactive) | > 100 µM (inactive) | > 100 µM (inactive) | > 100 µM (inactive) | > 100 µM (inactive) | > 100 µM (inactive) | > 100 µM (inactive) | > 100 µM (inactive) | > 100 µM (inactive) | – | > 100 µM (inactive) | > 100 µM (inactive) | – | > 100 µM (inactive) | –
4 | N=C(CC(=O)NOC(=O)c1ccccc1)NOC(=O)c1ccccc1 | 27.5 µM (inactive) | 69.7 µM (inactive) | 23.2 µM (inactive) | > 100 µM (inactive) | > 100 µM (inactive) | > 100 µM (inactive) | 17.7 µM (inactive) | 74.6 µM (inactive) | 25.5 µM (inactive) | 25.9 µM (inactive) | 32.4 µM (inactive) | 36.3 µM (inactive) | 25.2 µM (inactive) | 28.7 µM (inactive) | 38 µM (inactive) | – | – | 78.3 µM (inactive) | –
5 | CC(C)N/C(=N\C#N)NS(=O)(=O)c1cnccc1Nc1ccc(Cl)cc1 | > 100 µM (inactive) | > 100 µM (inactive) | > 100 µM (inactive) | > 100 µM (inactive) | > 100 µM (inactive) | > 100 µM (inactive) | – | > 100 µM (inactive) | > 100 µM (inactive) | > 100 µM (inactive) | > 100 µM (inactive) | > 100 µM (inactive) | > 100 µM (inactive) | > 100 µM (inactive) | > 100 µM (inactive) | > 100 µM (inactive) | > 100 µM (inactive) | – | –
6 | Cc1ccc(C)c2c1NC(=O)/C2=N\Nc1ccccc1[N+](=O)[O-] | > 100 µM (inactive) | > 100 µM (inactive) | > 100 µM (inactive) | > 100 µM (inactive) | > 100 µM (inactive) | > 100 µM (inactive) | > 100 µM (inactive) | > 100 µM (inactive) | – | > 100 µM (inactive) | > 100 µM (inactive) | > 100 µM (inactive) | > 100 µM (inactive) | > 100 µM (inactive) | > 100 µM (inactive) | > 100 µM (inactive) | > 100 µM (inactive) | > 100 µM (inactive) | 1.61 µM (inactive)
7 | N#Cc1c(-c2ccc(Cl)cc2)c(C#N)c(=O)n(NS(=O)(=O)c2ccccc2)c1O | 26.4 µM (inactive) | – | 35.6 µM (inactive) | 19.6 µM (inactive) | 27.7 µM (inactive) | 29.6 µM (inactive) | 15.1 µM (inactive) | 6.44 µM (inactive) | 35.3 µM (inactive) | 15.1 µM (inactive) | 28.8 µM (inactive) | 34.3 µM (inactive) | 13.4 µM (inactive) | 21.5 µM (inactive) | 25.2 µM (inactive) | 27.9 µM (inactive) | 34 µM (inactive) | 16.1 µM (inactive) | –
8 | N#Cc1c(N2CCN(c3ccc([N+](=O)[O-])cc3)CC2)[n+]([O-])c2ccc(-c3ccc([N+](=O)[O-])cc3)cc2[n+]1[O-] | > 89.3 µM (inactive) | > 31 µM (inactive) | > 100 µM (inactive) | 2.55 µM (inactive) | 16.4 µM (inactive) | 19.2 µM (inactive) | 0.9 µM (active) | 5.02 µM (inactive) | 9.08 µM (inactive) | 18 µM (inactive) | 2.49 µM (inactive) | 39.6 µM (inactive) | > 100 µM (inactive) | > 100 µM (inactive) | 1.28 µM (inactive) | – | > 26.9 µM (inactive) | – | –
9 | COC1(OC)CC(CO)(COc2cc(Cl)nc(N)n2)C1 | > 100 µM (inactive) | > 100 µM (inactive) | > 100 µM (inactive) | > 100 µM (inactive) | > 100 µM (inactive) | – | > 100 µM (inactive) | – | > 100 µM (inactive) | > 100 µM (inactive) | > 100 µM (inactive) | > 100 µM (inactive) | > 100 µM (inactive) | > 100 µM (inactive) | > 100 µM (inactive) | > 100 µM (inactive) | > 100 µM (inactive) | – | –
10 | Cc1ccc(S(=O)(=O)N(CC(O)c2ccccc2)c2ccccc2F)cc1 (stereo not drawn) | 18 µM (inactive) | 16.6 µM (inactive) | 15.9 µM (inactive) | 15.5 µM (inactive) | 4.65 µM (inactive) | 16.4 µM (inactive) | 16.1 µM (inactive) | 17 µM (inactive) | 16.4 µM (inactive) | 12.2 µM (inactive) | 19.5 µM (inactive) | 16.2 µM (inactive) | 16.6 µM (inactive) | 17.4 µM (inactive) | 25.3 µM (inactive) | 17.3 µM (inactive) | 12.3 µM (inactive) | 1.13 µM (inactive) | –
11 | CCCCCCCCCc1c(O)c(O)c(CCCCCCCCC)c(CCCCCCCCC)c1CCCCCCCCC | > 100 µM (inactive) | > 100 µM (inactive) | > 100 µM (inactive) | > 100 µM (inactive) | > 100 µM (inactive) | > 100 µM (inactive) | > 100 µM (inactive) | > 100 µM (inactive) | > 100 µM (inactive) | > 100 µM (inactive) | > 100 µM (inactive) | 47.2 µM (inactive) | > 100 µM (inactive) | > 100 µM (inactive) | 31 µM (inactive) | 30.2 µM (inactive) | – | 26.4 µM (inactive) | –
12 | CC(C)(C)C(=O)N(C(=S)OCc1ccccn1)c1ccccc1 | > 100 µM (inactive) | 35.3 µM (inactive) | 36.1 µM (inactive) | 35.2 µM (inactive) | > 100 µM (inactive) | 39.4 µM (inactive) | 23.9 µM (inactive) | 12.2 µM (inactive) | 23.1 µM (inactive) | 63 µM (inactive) | – | > 100 µM (inactive) | 42.1 µM (inactive) | > 100 µM (inactive) | 22.6 µM (inactive) | – | – | 19.9 µM (inactive) | –
